Experimental findings from PubChem BioAssay (NCI) are described below.

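Compound exposure: 48 hours, 5 concentrations, 96-well plates. TGI: total growth inhibition.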 Where a SMILES comes first, the peptide text is derived from it. The star is where a group is joined. Boc = CC(C)(C)OC(=O)* Bounds are passed on as bounds.

The first test deals with HT29 colon. Briefly: NCI tumour cell line growth inhibition, 48 h.
The molecule `NC(C(F)(F)F)(C(F)(F)F)P(=O)(Cc1ccccc1)Cc1ccccc1` returned a TGI of more than 100 µM.
Still for that read-out and setting: for `CN1C(=O)C2C(=O)N(Cc3ccccc3)CC(=O)N2c2cccnc21` (centres undefined) the value was more than 100 µM; for `C=C1CC(COc2cc(=O)oc3ccccc23)(c2ccccc2)OC1=O` (centres undefined), 3.4 µM; for `O=C(O)CSc1nnc(COc2ccc(Cl)cc2)n1-c1ccccc1`, more than 100 µM.
Still for that read-out and setting: for `C[N+]1=C2[B-](C(C)(C)C)=[N+](C(C)(C)C)[B-]2(C(C)(C)C)[N+](C)=C2[B-](C(C)(C)C)=[N+](C(C)(C)C)[B-]21C(C)(C)C` (centres undefined) the value was more than 100 µM; for `Cc1cc(N(CCC#N)CCC#N)ccc1/C=N/NC(=O)c1cc(Cl)ccc1O`, more than 100 µM.
The same measure, in the same setting: then `Brc1ccc(CCNCCN2CCCCC2)cc1`, with 15.4 µM; and `Cc1ccc(C(=O)Nc2ccc(CP(=O)(O)O)cc2CP(=O)(O)O)cc1NC(=O)c1cccc(N)c1`, with more than 100 µM; and `OC1C2[C@@H](O)CCCN2C[C@@H](O)[C@H]1O` (some centres undefined), with more than 100 µM.
Regarding `COCOC1/C=C/CCCC#C[C@H](C)C(=O)CC1` (some centres undefined), the TGI worked out at 13.6 µM.
Still for that read-out and setting: then `CC[C@]1(Cc2ccc(OC)c(OC)c2)CN(S(=O)(=O)c2ccc(C)cc2)C[C@@H]1OC(C)=O`, with more than 100 µM; and `COc1ccccc1N/C(=C\C(=O)C(=O)NC12CC3CC(CC(C3)C1)C2)c1ccccc1`, with more than 10 µM.
Molecule `CC(C)(C)c1ccc2c(c1)CNCCNCc1cc(C(C)(C)C)ccc1OCC1(CO2)COc2ccc(C(C)(C)C)cc2CNCCNCc2cc(C(C)(C)C)ccc2OC1` registered a TGI of 0.472 µM.
The molecule `NCC1CCN(c2nc3ccccc3c3c2CCCC3)CC1` came in with a TGI of 6.22 µM.
The same measure, in the same setting: then `CCN(CC)CCc1c2c(nc3ccccc13)C(=O)c1cccnc1C2=O`, with 11.1 µM; and `Nc1cc(CO)cc(Nc2nc3ccc(Cl)cc3c3[nH]c4ccccc4c23)c1`, with 11.7 µM.
Still for that read-out and setting: then `Cc1c(F)c(N)c2c(=O)cc(-c3ccc(NC(=O)CN(C)C)c(F)c3)oc2c1F`, with more than 100 µM.
The same measure, in the same setting: for `CCN1CC2=C(NC(=S)NC2c2ccc(Cl)cc2)/C(=C/c2ccc(Cl)cc2)C1` (centres undefined) the value was more than 100 µM; for `CN1C(=O)N(c2ccccc2)C2(CCN(CC3COc4ccccc4O3)CC2)C1=O` (centres undefined), more than 100 µM.
For the molecule `O=C(O)c1c2c(cc3c1CC1(Cc4ccccc4C1)C3)CCC2`, the TGI was more than 100 µM.
`Cc1nc(-c2ccc([N+](=O)[O-])cc2)cn2c1nc1ccccc12` came in with a TGI of more than 100 µM.
On the same count and under the same terms, then `OCC1CCCCCCCCCCC12SCCCS2` (centres undefined), with more than 100 µM.
The same measure, in the same setting: for `COc1cc(-c2cc(=O)c3cc4c(cc3[nH]2)OCO4)cc(OC)c1O` the value was more than 10 µM.
The same measure, in the same setting: then `CC(C)=CCOC(=O)C(C)=[N+]=[N-]`, with more than 100 µM; and `COC(=O)CNC(=O)C(Cc1ccccc1)NC(=O)C(CCSC)NC(=O)C(Cc1ccc(O)cc1)NC(=O)OC(C)(C)C` (centres undefined) (Boc-YMFG-OMe; configuration not given here), with more than 100 µM.
With `O=C(Nc1ccc(Br)cc1)c1c(-c2ccccc2)c2ccc(O)cc2oc1=O`, the TGI is more than 10 µM.
In turn, `COc1ccc(N2C(=O)C3c4[nH]c5ccc(OCc6ccccc6)cc5c4C4CCC(C(C)(C)C)CC4C3C2=O)cc1` (centres undefined) had a TGI of more than 100 µM.

Another test has as its system MDA-N. The experiment in a line: NCI tumour cell line growth inhibition, 48 h.
For `NC(C(F)(F)F)(C(F)(F)F)P(=O)(Cc1ccccc1)Cc1ccccc1`, the TGI was more than 100 µM.
Same read-out and setting: for `CN1C(=O)C2C(=O)N(Cc3ccccc3)CC(=O)N2c2cccnc21` (centres undefined) the value was more than 100 µM; for `C=C1CC(COc2cc(=O)oc3ccccc23)(c2ccccc2)OC1=O` (centres undefined), 5.57 µM; for `O=C(O)CSc1nnc(COc2ccc(Cl)cc2)n1-c1ccccc1`, more than 100 µM.
`C[N+]1=C2[B-](C(C)(C)C)=[N+](C(C)(C)C)[B-]2(C(C)(C)C)[N+](C)=C2[B-](C(C)(C)C)=[N+](C(C)(C)C)[B-]21C(C)(C)C` (centres undefined) came in with a TGI of more than 100 µM.
Same read-out and setting: for `Cc1cc(N(CCC#N)CCC#N)ccc1/C=N/NC(=O)c1cc(Cl)ccc1O` the value was more than 100 µM; for `Brc1ccc(CCNCCN2CCCCC2)cc1`, 23.8 µM.
The molecule `Cc1ccc(C(=O)Nc2ccc(CP(=O)(O)O)cc2CP(=O)(O)O)cc1NC(=O)c1cccc(N)c1` gave a TGI of more than 100 µM.
The same measure, in the same setting: then `OC1C2[C@@H](O)CCCN2C[C@@H](O)[C@H]1O` (some centres undefined), with more than 100 µM.
The same measure, in the same setting: then `COCOC1/C=C/CCCC#C[C@H](C)C(=O)CC1` (some centres undefined), with 24.3 µM.
Same read-out and setting: then `CC[C@]1(Cc2ccc(OC)c(OC)c2)CN(S(=O)(=O)c2ccc(C)cc2)C[C@@H]1OC(C)=O`, with more than 100 µM; and `COc1ccccc1N/C(=C\C(=O)C(=O)NC12CC3CC(CC(C3)C1)C2)c1ccccc1`, with more than 10 µM; and `CC(C)(C)c1ccc2c(c1)CNCCNCc1cc(C(C)(C)C)ccc1OCC1(CO2)COc2ccc(C(C)(C)C)cc2CNCCNCc2cc(C(C)(C)C)ccc2OC1`, with 2.14 µM.
Molecule `NCC1CCN(c2nc3ccccc3c3c2CCCC3)CC1` showed a TGI of 7.92 µM.
The same measure, in the same setting: for `CCN(CC)CCc1c2c(nc3ccccc13)C(=O)c1cccnc1C2=O` the value was 4.54 µM; for `Nc1cc(CO)cc(Nc2nc3ccc(Cl)cc3c3[nH]c4ccccc4c23)c1`, 21.1 µM; for `Cc1c(F)c(N)c2c(=O)cc(-c3ccc(NC(=O)CN(C)C)c(F)c3)oc2c1F`, more than 100 µM.
Molecule `CCN1CC2=C(NC(=S)NC2c2ccc(Cl)cc2)/C(=C/c2ccc(Cl)cc2)C1` (centres undefined) gave a TGI of more than 100 µM.
Same read-out and setting: then `CN1C(=O)N(c2ccccc2)C2(CCN(CC3COc4ccccc4O3)CC2)C1=O` (centres undefined), with more than 100 µM; and `O=C(O)c1c2c(cc3c1CC1(Cc4ccccc4C1)C3)CCC2`, with more than 100 µM.
`Cc1nc(-c2ccc([N+](=O)[O-])cc2)cn2c1nc1ccccc12`: the TGI was more than 100 µM.
Still for that read-out and setting: for `OCC1CCCCCCCCCCC12SCCCS2` (centres undefined) the value was more than 100 µM; for `COc1cc(-c2cc(=O)c3cc4c(cc3[nH]2)OCO4)cc(OC)c1O`, more than 10 µM; for `CC(C)=CCOC(=O)C(C)=[N+]=[N-]`, more than 100 µM.
The same measure, in the same setting: for `COC(=O)CNC(=O)C(Cc1ccccc1)NC(=O)C(CCSC)NC(=O)C(Cc1ccc(O)cc1)NC(=O)OC(C)(C)C` (centres undefined) (Boc-YMFG-OMe; configuration not given here) the value was more than 100 µM; for `O=C(Nc1ccc(Br)cc1)c1c(-c2ccccc2)c2ccc(O)cc2oc1=O`, more than 10 µM; for `COc1ccc(N2C(=O)C3c4[nH]c5ccc(OCc6ccccc6)cc5c4C4CCC(C(C)(C)C)CC4C3C2=O)cc1` (centres undefined), more than 100 µM.

A further test deals with CAKI-1 renal. Briefly: NCI tumour cell line growth inhibition, 48 h.
For the molecule `NC(C(F)(F)F)(C(F)(F)F)P(=O)(Cc1ccccc1)Cc1ccccc1`, the TGI is more than 100 µM.
The molecule `CN1C(=O)C2C(=O)N(Cc3ccccc3)CC(=O)N2c2cccnc21` (centres undefined) came in with a TGI of more than 100 µM.
Same read-out and setting: for `C=C1CC(COc2cc(=O)oc3ccccc23)(c2ccccc2)OC1=O` (centres undefined) the value was 2.67 µM; for `O=C(O)CSc1nnc(COc2ccc(Cl)cc2)n1-c1ccccc1`, more than 100 µM; for `C[N+]1=C2[B-](C(C)(C)C)=[N+](C(C)(C)C)[B-]2(C(C)(C)C)[N+](C)=C2[B-](C(C)(C)C)=[N+](C(C)(C)C)[B-]21C(C)(C)C` (centres undefined), more than 100 µM.
Same read-out and setting: then `Cc1cc(N(CCC#N)CCC#N)ccc1/C=N/NC(=O)c1cc(Cl)ccc1O`, with more than 100 µM.
On the same count and under the same terms, for `Brc1ccc(CCNCCN2CCCCC2)cc1` the value was 29.2 µM; for `Cc1ccc(C(=O)Nc2ccc(CP(=O)(O)O)cc2CP(=O)(O)O)cc1NC(=O)c1cccc(N)c1`, more than 100 µM.
For `OC1C2[C@@H](O)CCCN2C[C@@H](O)[C@H]1O` (some centres undefined), the TGI is more than 100 µM.
Still for that read-out and setting: for `COCOC1/C=C/CCCC#C[C@H](C)C(=O)CC1` (some centres undefined) the value was 24.7 µM.
